Measured values taken from paper PMC10718593, “Rational design, synthesis, molecular modeling, biological activity, and mechanism of action of polypharmacological norfloxacin hydroxamic acid derivatives” (RSC Medicinal Chemistry, 2023).
≈ marks a conversion by molar mass, not a printed value.

The molecules below were run on E. coli (assay: microbe, parasite or virus in culture). Details: Escherichia coli.
Set-up: Minimal inhibitory concentration, bacterial growth inhibition
Description: Minimal inhibitory concentrations (MICs) were determined against a panel of test strains comprising Gram-negative, Gram-positive, and mycobacteria, including a fluoroquinolone-resistant, clinical isolate of E. coli and an MRSA strain that is also resistant to norfloxacin and ciprofloxacin (Table 1).
`CCn1cc(C(=O)NO)c(=O)c2cc(F)c(N3CCN(C)CC3)cc21` [11a] was tested, and the MIC was 0.18 µM (≈ 0.0627 µg/mL).
`CCn1cc(C(=O)O)c(=O)c2cc(F)c(N3CCN(CN4CCCCC4)CC3)cc21` [19a, 1-ethyl-6-fluoro-1,4-dihydro-4-oxo-7-(4-((piperidin-1-yl)methyl)piperazin-1-yl)quinoline-3-carboxylic acid] showed an MIC of 0.3 µM (≈ 0.125 µg/mL).
`CCn1cc(C(=O)NO)c(=O)c2cc(F)c(N3CCN(CN4C(=O)CCC4=O)CC3)cc21` [23a, 1-ethyl-6-fluoro-1,4-dihydro-N-hydroxy-4-oxo-7-(4-((2,5-dioxopyrrolidin-1-yl)methyl)piperazin-1-yl)quinoline-3-carboxamide] gave an MIC of 0.56 µM (≈ 0.249 µg/mL).
With `CCn1cc(C(=O)NO)c(=O)c2cc(F)c(N3CCN(Cc4ccc(Cl)cc4)CC3)cc21` [11f] the MIC was 1.08 µM (≈ 0.496 µg/mL).
`CCn1cc(C(=O)O)c(=O)c2cc(F)c(N3CCN(CNc4ccc([N+](=O)[O-])cc4)CC3)cc21` [compound 25, 25] showed an MIC of 0.266 µM (≈ 0.125 µg/mL).
`CCn1cc(C(=O)NO)c(=O)c2cc(F)c(N3CCN(CN4CCOCC4)CC3)cc21` [20b] showed an MIC of 0.28 µM (≈ 0.121 µg/mL).
Work on `CCCCCN1CCN(c2cc3c(cc2F)c(=O)c(C(=O)NO)cn3CC)CC1` [11d, 1-ethyl-6-fluoro-1,4-dihydro-N-hydroxy-7-(4-pentylpiperazin-1-yl)-4-oxoquinoline-3-carboxamide] yielded an MIC of 0.3 µM (≈ 0.121 µg/mL).
